Data from patent US20120238488A1, “COMPOUNDS AND METHODS FOR TREATING NEOPLASIA” (priority 2009, published 2012).

What was measured:
ERVK (Lung) = experiment: SRB assay, ERVK; type: cell-based, human; details: 48 h
Protocol: (§1) SRB assays were performed according to standard National Cancer Institute Guidelines. Briefly, human tumor cells from different cancer panels were seeded into 96 well plates in 100 μL (plating densities ranging from 5-40,000 cells/well depending on the doubling time of individual cell lines) in serum-containing media for twenty-four hours prior to the addition of the compounds to be assayed. After 24 hours, one plate of each cell line was fixed in situ with trichloroacetic acid (TCA). The fixed slides were used to determine the cell population for each cell line at the time of drug addition (Tz). Each compound to be tested was solubilized in DMSO and the desired concentration was then added to the medium and diluted serially 1:10 to provide a total of five or ten drug concentrations plus control (in a final volume of 200 μL). The starting dose before any dilution was 100 uM for all compounds.
(§2) Following drug addition, each culture was incubated for forty-eight hours. The assay was terminated with the addition of cold TCA. The supernatant was discarded, and the plates were washed with tap water and air dried. Sulforhodamine B (SRB) solution was then added to each well. After staining, the bound stain was solubilized and the absorbance was read on an automated plate reader at a wavelength of 515 nm.
(§3) Using the absorbance measurements [time zero, (Tz), control growth, (C), and test growth in the presence of drug at the ten concentration levels (Ti)], the percentage growth was calculated at each of the drug concentrations levels. Percentage growth inhibition was calculated as:
(§4) [(Ti−Tz)/(C−Tz)]×100 for concentrations for which Ti>/=Tz
(§5) [(Ti−Tz)/Tz]×100 for concentrations for which Ti<Tz.
(§6) Three dose response parameters were calculated for each experimental agent. Growth inhibition of 50% (GI50) was calculated from [(Ti−Tz)/(C−Tz)]×100=50, which was the drug concentration resulting in a 50% reduction in the net protein increase (as measured by SRB staining) in control cells during the drug. The drug concentration resulting in total growth inhibition (TGI) was calculated from Ti=Tz. The LC50 (concentration of drug resulting in a 50% reduction in the measured protein at the end of the drug treatment as compared to that at the beginning) indicating a net loss of cells following treatment was calculated from [(Ti−Tz)/Tz]×100=−50.
(§7) Values were calculated for each of these three parameters when the level of activity was reached; however, if the effect was not reached or was exceeded, the value for that parameter was expressed as greater or less than the maximum or minimum concentration tested.
(§8) Table 4 summarizes results characterizing the effects of compound Nos. 120, 12, 61, 1, and 56 on GI50, which measures the cell growth inhibitory power of the compound, TGI, which measures cytostatic effect (TGI) and LC50, which signifies cytotoxic effect. Each of these parameters in Table 4 was calculated in a sulforhodamine B (SRB) assay, which provides a colorimetric measure of a compound's anti-cancer activity. SRB assays were performed with compounds of the invention in 22 different cell lines (shaded in light gray in Table 4), which represent nine different tumor panels (lung, melanoma, ovary, prostate, CNS, breast, pancreas colon and renal). Ouabain and digoxin were used as controls. Paclitaxel was added as a non-Na^+K^+-ATPase inhibitor control.

DU145 (Prostate) = experiment: SRB assay, DU145; type: cell-based, human; details: for TGI / GI50: DU145, SRB, 48 h; for CC50 / GI50: Homo sapiens; for CC50: DU-145, 48 h, read-out: LC50; for GI50: DU-145
Protocol: as §1, §2, §3, §4, §5, §6, §7, §8

PCJ (Prostate) = experiment: SRB assay, PCJ; type: cell-based; details: Homo sapiens, 48 h; for CC50: read-out: LC50; for GI50 / IC (TGI): PCJ, SRB
Protocol: as §1, §2, §3, §4, §5, §6, §7, §8

HCT116 (Colon) = experiment: SRB assay, HCT116; type: cell-based; details: Homo sapiens; for CC50: HCT-116, 48 h, read-out: LC50; for GI50 / IC (TGI): HCT-116, HCT116, SRB, 48 h
Protocol: as §1, §2, §3, §4, §5, §6, §7, §8

SF268 (CNS) = experiment: SRB assay, SF268; type: cell-based; details: Homo sapiens; for CC50: SF-268, 48 h, read-out: LC50; for GI50 / IC (TGI): SF-268, SF268, SRB, 48 h; for GI50: read-out: GI50; for IC (TGI): read-out: TGI
Protocol: as §1, §2, §3, §4, §5, §6, §7, §8

MB435 (Melanoma) = experiment: SRB assay, MB435; type: cell-based, human; details: 48 h
Protocol: as §1, §2, §3, §4, §5, §6, §7, §8

CAKJ1 (Renal) = experiment: SRB assay, CAKJ1; type: cell-based, human; details: 48 h; for TGI / GI50: CAKJ1, SRB; for CC50 / GI50: Homo sapiens; for CC50: read-out: LC50
Protocol: as §1, §2, §3, §4, §5, §6, §7, §8

ADRRES (Ovary) = experiment: SRB assay, ADRRES (multidrug resistant NCI-ADR-RES); type: cell-based, human; details: for TGI / GI50: ADRRES; for TGI / CC50 / GI50: 48 h; for CC50 / GI50: Homo sapiens, NCI/ADR-RES; for CC50: read-out: LC50
Protocol: NCI-ADR-RES cells have been classified as ovarian cancer cells by the National Cancer Institute.
as §1, §2, §3, §4, §5, §6, §7, §8
Table 4 also presents results with Compound Nos. 120, 12, 61, 1, and 56 in a well characterized drug resistant cell line, NCI-ADR-RES, that expresses high levels of MDR1 and P-glycoprotein.

[1] = system: Na+/K+-ATPase (Adenosine 5′-Triphosphatase isolated from porcine cerebral cortex); experiment: Na+/K+-ATPase inhibitory activity, colorimetric Adenosine 5'-Triphosphatase Enzymatic Assay; type: biochemical
Protocol: The inhibitory effect of a compound of the invention on ATPase activity was assessed in vitro using the colorimetric Adenosine 5′-Triphosphatase Enzymatic Assay of Sigma (St. Louis, Mo.) according to the manufacturer's instructions. This assay utilizes Adenosine 5′-Triphosphatase isolated from porcine cerebral cortex. Each reaction was performed in a final volume of 250 μl using 0.5 units/ml enzyme in the presence of different inhibitors. […] IC50 values were determined using the Origin® program software (OriginLab, Northampton, Mass.).

A549 (Lung) = experiment: SRB assay, A549; type: cell-based, human; details: for TGI / GI50: A549, SRB, 48 h; for CC50 / GI50: Homo sapiens; for CC50: A549, 48 h, read-out: LC50
Protocol: as §1, §2, §3, §4, §5, §6, §7, §8

SKMEL28 (Melanoma) = experiment: SRB assay, SKMEL28; type: cell-based, human; details: for CC50 / GI50: Homo sapiens; for CC50: SK-MEL-28, 48 h, read-out: LC50; for GI50: SK-MEL-28; for GI50 / TGI: SKMEL28, SRB, 48 h
Protocol: as §1, §2, §3, §4, §5, §6, §7, §8

OVCAR3 (Ovary) = experiment: SRB assay, OVCAR3; type: cell-based, human
Protocol: as §1, §2, §3, §4, §5, §6, §7, §8

OVCAR5 (Ovary) = experiment: SRB assay, OVCAR5; type: cell-based, human
Protocol: as §1, §2, §3, §4, §5, §6, §7, §8

Work on `C[C@]12CCC(=NOC3CCNC3)CC1CCC1C2CC[C@]2(C)C(=O)CCC12` (stereo partly drawn) [Compound 56, (10S,13S)-10,13-dimethyl-3-(pyrrolidin-3-yloxyimino)tetradecahydro-1H-cyclopenta[a]phenanthren-17(2H)-one] yielded a TGI (ERVK (Lung); ERVK, SRB) of 62.8 nM, a CC50 (ERVK (Lung); Homo sapiens, read-out: LC50) of 288 nM and a GI50 (ERVK (Lung); Homo sapiens, ERVK, SRB) of 17.9 nM. The TGI (DU145 (Prostate)) was 22 nM, the CC50 (DU145 (Prostate)) was 70.6 nM and the GI50 (DU145 (Prostate)) was 5 nM. It also gave a CC50 (PCJ (Prostate)) of 936 nM, a GI50 (PCJ (Prostate)) of 33.2 nM and an IC (TGI) (PCJ (Prostate)) of 387 nM. It also gave a CC50 (HCT116 (Colon)) of 762 nM, a GI50 (HCT116 (Colon)) of 5.8 nM and an IC (TGI) (HCT116 (Colon)) of 70.5 nM. The CC50 (SF268 (CNS)) was 810 nM, the GI50 (SF268 (CNS)) was 56.7 nM and the IC (TGI) (SF268 (CNS)) was 349 nM. It also gave a CC50 (MB435 (Melanoma); Homo sapiens, read-out: LC50) of 668 nM, a GI50 (MB435 (Melanoma); Homo sapiens, MB435, SRB) of 48.5 nM and a TGI (MB435 (Melanoma); MB435, SRB) of 218.2 nM. The TGI (CAKJ1 (Renal)) was 26.5 nM, the CC50 (CAKJ1 (Renal)) was 172 nM and the GI50 (CAKJ1 (Renal)) was < 1 nM. For the same molecule, the TGI (ADRRES (Ovary); SRB) was 49.1 nM, the CC50 (ADRRES (Ovary)) was 90.8 nM and the GI50 (ADRRES (Ovary); SRB) was 9.3 nM. The “anti-tumor action in multidrug resistant cell line NCI-ADR-RES” value (ADRRES (Ovary); SRB, cells express high levels of MDR1 and P-glycoprotein) was “potent anti-tumor action”, the “Na+K+ ATPase inhibitory activity (in words)” value [1] was “very potent Na+K+ ATPase inhibitors” and the IC50 ([1]; read-out: Na+K+ ATPase inhibitory activity IC50) was 101 nM. The TGI (A549 (Lung)) was 4 nM, the CC50 (A549 (Lung)) was 8.2 nM and the GI50 (A549 (Lung)) was < 1 nM. For the same molecule, the CC50 (SKMEL28 (Melanoma)) was 3740 nM, the GI50 (SKMEL28 (Melanoma)) was 40.9 nM and the TGI (SKMEL28 (Melanoma)) was 225.3 nM. For the same molecule, the CC50 (OVCAR3 (Ovary); Homo sapiens, OVCAR-3, 48 h, read-out: LC50) was 170 nM, the GI50 (OVCAR3 (Ovary); Homo sapiens, OVCAR-3, OVCAR3, SRB, 48 h) was 2.9 nM and the TGI (OVCAR3 (Ovary); OVCAR3, SRB, 48 h) was 11.4 nM. For the same molecule, the CC50 (OVCAR5 (Ovary); Homo sapiens, OVCAR-5, 48 h, read-out: LC50) was 740 nM, the GI50 (OVCAR5 (Ovary); Homo sapiens, OVCAR-5, OVCAR5, SRB, 48 h) was 74.9 nM and the TGI (OVCAR5 (Ovary); OVCAR5, SRB, 48 h) was 341.1 nM.
With `CC(=O)O[C@H]1C(=O)[C@@]2(C)[C@H]([C@H](OC(=O)c3ccccc3)[C@]3(O)C[C@H](OC(=O)[C@H](O)[C@@H](NC(=O)c4ccccc4)c4ccccc4)C(C)=C1C3(C)C)[C@]1(OC(C)=O)CO[C@@H]1C[C@@H]2O` [Paclitaxel, reference compound] the TGI (DU145 (Prostate)) was 8.6 nM, the CC50 (DU145 (Prostate)) was 143 nM and the GI50 (DU145 (Prostate)) was < 1 nM. The CC50 (PCJ (Prostate)) was > 10000 nM, the GI50 (PCJ (Prostate)) was < 100 nM and the IC (TGI) (PCJ (Prostate)) was > 10000 nM. The CC50 (HCT116 (Colon)) was > 10000 nM, the GI50 (HCT116 (Colon)) was < 100 nM and the IC (TGI) (HCT116 (Colon)) was 2240 nM. The CC50 (SF268 (CNS)) was > 10000 nM, the GI50 (SF268 (CNS)) was < 100 nM and the IC (TGI) (SF268 (CNS)) was 1930 nM. The TGI (CAKJ1 (Renal)) was 4969 nM, the CC50 (CAKJ1 (Renal)) was 11600 nM and the GI50 (CAKJ1 (Renal)) was < 1 nM. For the same molecule, the TGI (ADRRES (Ovary); SRB) was 5803.4 nM, the CC50 (ADRRES (Ovary)) was 10600 nM and the GI50 (ADRRES (Ovary); SRB) was 1050 nM. For the same molecule, the TGI (A549 (Lung)) was 6138.4 nM, the CC50 (A549 (Lung)) was 15300 nM and the GI50 (A549 (Lung)) was < 1 nM. For the same molecule, the CC50 (SKMEL28 (Melanoma)) was > 10000 nM, the GI50 (SKMEL28 (Melanoma)) was 2300 nM and the TGI (SKMEL28 (Melanoma)) was >10000 nM.
